{
  "source": "patent EP0526540B1",
  "about": "“USE OF 5-HT4-RECEPTOR ANTAGONISTS IN THE TREATMENT OF ATRIAL FIBRILLATION, INCLUDING THE PREVENTION OF STROKE” (SMITH KLINE & FRENCH LABORATORIES LIMITED, priority 1990, dated 1991)",
  "key": {"cardiac 5-HT4 receptors [1]": {"molecular_target": "cardiac 5-HT4 receptors (Sus scrofa, UniProt Q6Q253)", "sequence (Q6Q253 1-402)": "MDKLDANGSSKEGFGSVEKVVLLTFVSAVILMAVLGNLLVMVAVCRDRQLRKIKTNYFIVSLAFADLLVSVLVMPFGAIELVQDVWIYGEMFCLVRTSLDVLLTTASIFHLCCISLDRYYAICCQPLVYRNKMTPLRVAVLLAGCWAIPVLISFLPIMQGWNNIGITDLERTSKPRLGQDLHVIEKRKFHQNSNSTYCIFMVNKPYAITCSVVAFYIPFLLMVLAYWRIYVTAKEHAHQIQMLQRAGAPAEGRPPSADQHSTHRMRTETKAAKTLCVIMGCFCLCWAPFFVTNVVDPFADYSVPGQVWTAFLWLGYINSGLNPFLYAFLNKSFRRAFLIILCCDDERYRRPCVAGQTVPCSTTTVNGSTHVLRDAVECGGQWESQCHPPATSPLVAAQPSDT", "assay": "Piglet spontaneous beating atria screen (right atrium, positive chronotropic effect, antagonism of 5-HT)", "type": "cell-based, Porcine", "method": "Method (See A. J. Kaumann, 1990, Naunyn-Schmiedeberg's Arch. Pharmacol 342, 619-622).\nPiglets of either sex, 2 to 5 days old, were obtained from local farms. Usually 2 piglets were from the same litter. The piglets were anaesthetised with halothene; their hearts rapidly removed and washed free of blood with warm solution containing (mM):120 Na^+, 5 K^+, 2.25 Ca^2+, 0.5 Mg^2+, 98.5 Cl^-, 0.5 SO4^2-, 34 HCO3^-, 1 HPO4^2-, 0.04 EDTA, deionised and double distilled water in glass, equilibrated with 95% O2 and 5% CO2.\nAfter dissection of the right atrium in warm solution, the tissue was set up in an apparatus with a 50 ml. bath (Blinks, 1965 J. Appl. Physiol. 20, 755-757), containing the solution described above supplemented with (mM):15 Na^+, 5 fumarate, 5 pyruvate, 5 L-glutamate, 10 glucose. Experiments were carried out at 37°C. […] The tissue was attached to a Swema SG4-45 strain gauge transducer by means of a stainless steel wire and force recorded on a Watanabe polygraph. […]\nA single cumulative concentration-effect curve was determined by the sequential addition of 5-HT or other agonists to the bath in amounts that increased the total concentration in steps of ½ log unit. […] The time of incubation with an antagonist was at least 1 hr before a concentration-effect curve for an agonist was determined."}, "cardiac 5-HT4 receptors [2]": {"molecular_target": "T1, cardiac 5-HT4 receptors (Homo sapiens, UniProt Q13639)", "T1 construct": "from tissue; host or cells: human right atrial preparation", "T1 sequence (Q13639 whole entry)": "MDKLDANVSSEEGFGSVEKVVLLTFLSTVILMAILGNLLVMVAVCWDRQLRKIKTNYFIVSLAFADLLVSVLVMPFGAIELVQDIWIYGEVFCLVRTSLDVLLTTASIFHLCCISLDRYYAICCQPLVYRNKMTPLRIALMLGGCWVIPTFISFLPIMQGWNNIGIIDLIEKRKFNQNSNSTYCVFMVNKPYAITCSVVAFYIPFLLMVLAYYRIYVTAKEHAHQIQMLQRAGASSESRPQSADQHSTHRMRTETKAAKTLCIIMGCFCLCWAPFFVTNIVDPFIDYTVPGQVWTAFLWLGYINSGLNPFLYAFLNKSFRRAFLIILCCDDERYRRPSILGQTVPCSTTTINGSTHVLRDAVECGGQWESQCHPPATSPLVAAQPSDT", "assay": "Human right atrial preparations (force), blocking potency of antagonists", "type": "cell-based", "conditions": "Granisetron tested at 20 µM"}},
  "data": [
    {"molecule": "CN1[C@@H]2CC[C@H]1C[C@@H](OC(=O)c1n[nH]c3ccccc13)C2", "note": "[(3-α-tropanyl)-1H-indazole-3-carboxylic acid ester]", "values": [
      {"measurement": "type of antagonism of cardiac 5-HT4 receptors", "setting": "cardiac 5-HT4 receptors [1]; conclusion from the preliminary screening results of Table 1", "value": "competitive antagonist"}
    ]},
    {"molecule": "CN1C2CCCC1CC(NC(=O)c1nn(C)c3ccccc13)C2", "note": "(stereo not drawn) [Granisetron]", "values": [
      {"measurement": "pK (-log M equilibrium dissociation constant), blocking potency, Human (force)", "setting": "cardiac 5-HT4 receptors [2]", "value": "ineffective (20 µM)"},
      {"measurement": "pK (-log M equilibrium dissociation constant), blocking potency, Porcine (rate)", "setting": "cardiac 5-HT4 receptors [1]; piglet spontaneously beating right atrium, rate, 37°C, 400 nM (±)-propranolol and 6 µM cocaine present, antagonist incubated at least 1 hr, Granisetron tested at 1 µM, preliminary screening results", "value": "ineffective (1 µM)"}
    ]}
  ]
}
